Earlier results in US20110208437A1, “METHOD AND APPARATUS FOR I[…] SAFE AND E[…] REGIMEN” (THE MCLEAN HOSPITAL CORPORATION, priority 2008, published 2011).

Columns and labels:
[1] = oral administration of the same mg/kg dose
[2] = clinical trials, adults and children
[3] = 2.5 mg Focalin same therapeutic benefit as 5.0 mg Ritalin
dopamine reuptake = dopamine reuptake (Homo sapiens, UniProt Q01959)
Sequence of dopamine reuptake (Q01959 whole entry): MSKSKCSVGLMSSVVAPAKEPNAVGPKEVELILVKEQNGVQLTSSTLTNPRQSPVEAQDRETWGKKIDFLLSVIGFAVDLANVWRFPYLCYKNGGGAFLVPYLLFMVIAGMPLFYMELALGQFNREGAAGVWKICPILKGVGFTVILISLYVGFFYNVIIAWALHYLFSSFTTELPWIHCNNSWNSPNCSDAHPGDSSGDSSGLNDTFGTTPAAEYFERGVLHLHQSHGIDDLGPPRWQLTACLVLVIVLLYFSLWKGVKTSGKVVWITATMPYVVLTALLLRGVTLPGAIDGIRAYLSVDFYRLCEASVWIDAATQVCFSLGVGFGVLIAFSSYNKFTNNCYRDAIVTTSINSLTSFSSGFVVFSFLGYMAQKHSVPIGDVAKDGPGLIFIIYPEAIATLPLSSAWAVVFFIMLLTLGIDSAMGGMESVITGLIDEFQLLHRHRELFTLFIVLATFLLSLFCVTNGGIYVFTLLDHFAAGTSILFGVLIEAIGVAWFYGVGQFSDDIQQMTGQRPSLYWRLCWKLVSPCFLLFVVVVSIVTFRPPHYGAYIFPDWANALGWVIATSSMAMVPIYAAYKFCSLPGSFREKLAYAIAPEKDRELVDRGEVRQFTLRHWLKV

Compound: COC(=O)C(c1ccccc1)C1CCCCN1 (stereo not shown) [IR-MPH, methylphenidate]
- differences between individuals in peak blood levels (Cmax) [1]: 2-3 fold

Compound: CNCC[C@@H](Oc1ccccc1C)c1ccccc1 [Atomoxetine]
- coverage of symptoms associated with ADHD [2]: 24 h

Compound: COC(=O)[C@H](c1ccccc1)[C@H]1CCCCN1 [Focalin]
- potency relative to methylphenidate [3]: twice as potent

Compound: CC(NC(C)(C)C)C(=O)c1cccc(Cl)c1 (stereo not shown) [Bupropion]
- potency as inhibitor of dopamine reuptake relative to norepinephrine reuptake (dopamine reuptake): twice as potent
